Measurements published in patent US20130143872A1, “INJECTABLE FORMULATION OF A REVERSE TRANSCRIPTASE INHIBITOR FOR THE TREATMENT CANCER” (priority 2010, published 2013).
In brackets after ≈: the same amount, converted by molar mass.

Experiments:
[1] = cited from earlier work
[2] = Recrystallisation of nevirapine from water-ethanol co-solvent systems: crystal form and crystal habit; format: physicochemical
[3] = EtOH:H2O 90:0 ml, water content 0 % v/v
[4] = EtOH:H2O 90:4.7 ml, water content 5 % v/v
[5] = EtOH:H2O 90:22.5 ml, water content 20 % v/v
[6] = EtOH:H2O 90:38.6 ml, water content 30 % v/v
[7] = EtOH:H2O 90:60 ml, water content 40 % v/v
[8] = EtOH:H2O 90:90 ml, water content 50 % v/v
[9] = EtOH:H2O 90:135 ml, water content 60 % v/v
[10] = EtOH:H2O 90:210 ml, water content 70 % v/v
[11] = EtOH:H2O 90:360 ml, water content 80 % v/v

SMILES	solubility in water [1]	Crystal Habit ([2]; EtOH:H2O 90:0 ml (so in the source), water content 10 % v/v)	Crystal Habit [2, 3]	Nevirapine Form Obtained [2, 3]	Crystal Habit [2, 4]	Nevirapine Form Obtained [2, 4]	Crystal Habit [2, 5]	Nevirapine Form Obtained [2, 5]	Crystal Habit [2, 6]	Nevirapine Form Obtained [2, 6]	Crystal Habit [2, 7]	Nevirapine Form Obtained [2, 7]	Crystal Habit [2, 8]	Nevirapine Form Obtained [2, 8]	Crystal Habit [2, 9]	Nevirapine Form Obtained [2, 9]	Crystal Habit [2, 10]	Nevirapine Form Obtained [2, 10]	Crystal Habit [2, 11]	Nevirapine Form Obtained [2, 11]
Nc1ncnc2c1ncn2CCOCP(=O)(O)O [Adefonir]	400 µg/mL (≈ 1460 µM)																			
Cc1ccnc2c1NC(=O)c1cccnc1N2C1CC1 [nevirapine]		Very small tabular	Tabular crystals	Hemi-Ethanolate	Smaller tabular	Hemi-Ethanolate	Disorganized	Hemi-Hydrate	Disorganized	Hemi-Hydrate	Columnar clusters	Hemi-Hydrate	Platy clusters	Hemi-Hydrate	Platy crystals	Hemi-Hydrate	Platy crystals	Hemi-Hydrate	Very small bladed	Anhydrous
